# ChEMBL document CHEMBL1124317, “Rationale for the synthesis and preliminary biological evaluation of highly active new antitumor nitrosoureido sugars” (J Med Chem, 1989)
# Tests used:
# Mus musculus [1] = assay: The number of B16 Melanocarcinoma mice survived after 60 days with compound injected by a dose of 10 mg/kg intraperitoneally; 3/10; assay type: functional; conditions: route intraperitoneal
# Mus musculus [2] = assay: The number of L1210 leukemia mice survived after 60 days with compound injected by a dose of 30 mg/kg intraperitoneally; 9/10; assay type: functional; conditions: route intraperitoneal
# Mus musculus [3] = assay: Anti tumor activity l when treated to mice with L1210 leukemia with 1.25 mg/kg dose of compound intraperitoneally was expressed as percent of treated to control (T/C %); assay type: functional; conditions: route intraperitoneal
# Mus musculus [4] = assay: The number of L1210 leukemia mice survived after 30 days with compound injected by a dose of 5 mg/kg intraperitoneally; 8/8; assay type: functional; conditions: route intraperitoneal
# [5] = Mortality range of the mice with B16 Melanocarcinoma treated with 30 mg/kg of dose intraperitoneally with no of mice survived/no of mice treated; 0/10; assay type: functional; conditions: route intraperitoneal
# Mus musculus [6] = assay: The number of L1210 leukemia mice survived after 60 days with compound injected by a dose of 2.5 mg/kg intraperitoneally; 0/8; assay type: functional; conditions: route intraperitoneal
# Mus musculus [7] = assay: The number of L1210 leukemia mice survived after 60 days with compound injected by a dose of 20 mg/kg intraperitoneally; 10/10; assay type: functional; conditions: route intraperitoneal
# Mus musculus [8] = assay: Median survival time of the non surviving mice; treated with 5 mg/kg of compound to mice with B16 Melanocarcinoma; 30-47; assay type: functional
# [9] = Ratio of mice died to that of mice treated with 20 mg/kg of compound in olive oil intraperitoneally with Lewis lung; 0/20; assay type: functional; conditions: route intraperitoneal
# Mus musculus [10] = assay: Median survival time of the non surviving mice; treated with 2.5 mg/kg of compound to mice with L1210 leukemia; 40-54; assay type: functional
# Mus musculus [11] = assay: Median survival time of the non surviving mice; treated with 10 mg/kg of compound to mice with B16 Melanocarcinoma; 34-47; assay type: functional
# [12] = Mortality range of the mice with L1210 leukemia treated with 5 mg/kg of dose intraperitoneally with no of mice survived/no of mice treated; 0/10; assay type: functional; conditions: route intraperitoneal
# [13] = Ratio of mice died to that of mice treated with 20 mg/kg of compound in olive oil intraperitoneally with B16 Melanocarcinoma; 0/20; assay type: functional; conditions: route intraperitoneal
# Mus musculus [14] = assay: Anti tumor activity in olive oil when treated to mice with B16 melanocarcinoma with 20 mg/kg dose of compound intraperitoneally was expressed as percent of treated to control (T/C %); assay type: functional; conditions: route intraperitoneal
# Mus musculus [15] = assay: The number of L1210 leukemia mice survived after 30 days with compound injected by a dose of 10 mg/kg intraperitoneally; 8/8; assay type: functional; conditions: route intraperitoneal
# [16] = Mortality range of the mice with L1210 leukemia treated with 0.625 mg/kg of dose intraperitoneally with no of mice survived/no of mice treated; 0/8; assay type: functional; conditions: route intraperitoneal
# Mus musculus [17] = assay: Median survival time of the non surviving mice; treated with 1.25 mg/kg of compound to mice with L1210 leukemia; 16-19; assay type: functional
# [18] = (§1) Lethal dose was evaluated in male mouse; assay type: toxicity, organism-based; conditions: in vivo
# Mus musculus [19] = species on record: Mus musculus; assay: as §1; assay type: toxicity, organism-based; conditions: in vivo
# Mus musculus [20] = assay: The number of L1210 leukemia mice survived after 60 days with compound injected by a dose of 10 mg/kg intraperitoneally; 9/10; assay type: functional; conditions: route intraperitoneal
# Mus musculus [21] = assay: The number of L1210 leukemia mice survived after 60 days with compound injected by a dose of 5 mg/kg intraperitoneally; 2/10; assay type: functional; conditions: route intraperitoneal
# Mus musculus [22] = assay: The number of Lewis lung mice survived after 60 days with compound in olive oil injected by a dose of 20 mg/kg intraperitoneally; 18/20; assay type: functional; conditions: route intraperitoneal
# Mus musculus [23] = assay: The number of B16 melanocarcinoma mice survived after 60 days with compound in olive oil injected by a dose of 20 mg/kg intraperitoneally; 3/20; assay type: functional; conditions: route intraperitoneal
# [24] = Mortality range of the mice with L1210 leukemia treated with 20 mg/kg of dose intraperitoneally with no of mice survived/no of mice treated; 0/10; assay type: functional; conditions: route intraperitoneal
# Mus musculus [25] = assay: The number of L1210 leukemia mice survived after 30 days with compound injected by a dose of 1.25 mg/kg intraperitoneally; 0/8; assay type: functional; conditions: route intraperitoneal
# [26] = (§2) Lethal dose was evaluated in female mouse; assay type: toxicity, organism-based; conditions: in vivo
# Mus musculus [27] = species on record: Mus musculus; assay: as §2; assay type: toxicity, organism-based; conditions: in vivo
# [28] = Mortality range of the mice with L1210 leukemia treated with 2.5 mg/kg of dose intra peritoneally with no of mice survived/no of mice treated; 0/10; assay type: functional
# Mus musculus [29] = assay: The number of L1210 leukemia mice survived after 60 days with compound in aqueous solution injected by a dose of 20 mg/kg intraperitoneally; 6/10; assay type: functional; conditions: route intraperitoneal
# Mus musculus [30] = assay: The number of L1210 leukemia mice survived after 30 days with compound injected by a dose of 30 mg/kg intraperitoneally; 9/10; assay type: functional; conditions: route intraperitoneal
compound,measurement,setting,value
CO[C@@H]1C[C@@H](NC(=O)N(CCCl)N=O)[C@H](O)[C@@H](CO)O1 [ECOMUSTINE],Survivals,Mus musculus [1],3
same,Survivals,Mus musculus [2],9
same,T/C,Mus musculus [3],188%
same,Survivals,Mus musculus [4],8
same,Ratio,[5],0
same,Survivals,Mus musculus [6],0
same,Survivals,Mus musculus [7],10
same,Median survival time,Mus musculus [8],40
same,Ratio,[9],0
same,Median survival time,Mus musculus [10],43.2
same,Median survival time,Mus musculus [11],44
same,Ratio,[12],0
same,Ratio,[13],0
same,T/C,Mus musculus [14],239%
same,Survivals,Mus musculus [15],8
same,Ratio,[16],0
same,Median survival time,Mus musculus [17],16.9
same,LD50,[18],43.3 mg/kg
same,LD10,Mus musculus [19],31.2 mg/kg
same,LD90,Mus musculus [19],60 mg/kg
same,Survivals,Mus musculus [20],9
same,Survivals,Mus musculus [21],2
same,Survivals,Mus musculus [22],18
same,Survivals,Mus musculus [23],3
same,Ratio,[24],0
same,Survival after 30 days,Mus musculus [25],0
same,LD50,[26],40.7 mg/kg
same,LD10,Mus musculus [27],29.4 mg/kg
same,LD90,Mus musculus [27],56.4 mg/kg
same,Ratio,[28],0
same,Survivals,Mus musculus [29],6
same,Survivals,Mus musculus [30],9
